Test results reported in patent US20220280526A1, “AGENT FOR THE TREATMENT OF PSORIASIS” (EBERHARD KARLS UNIVERSITAET TUEBINGEN MEDIZINISCHE FAKULTAET, priority 2019, published 2022).
Entries after “also recorded” stand apart in the source; their conditions may differ.

Experiments:
[1] = test system: H3K27me3; conditions: cited from earlier work
[2] = test system: IL-36-mediated psoriasis-like dermatitis; experiment: IL-36α-triggered psoriasis-like dermatitis mouse model, topical treatment of ears; type: in vivo, C57BL/6 mice
Procedure: Experiments were conducted in accordance with the German law guidelines of animal care. […] At day 7, mice were sacrificed and analysed. For IL-36α-mediated psoriasis induction, ears of male C57BL/6 mice (8-12 weeks old) were treated by intradermal injections using 1 μg murine IL-36α (aa 8-160, R&D) or PBS control for 5 consecutive days. […] Inhibitors were topically applicated 6 h before intradermal injections of IL-36α or PBS were applied. Mice were sacrificed and analysed at day 6. Ear sections from mice were fixed in 10% formalin (Carl Roth) and subsequently embedded in paraffin. 5-μm sections were prepared and incubated with the following antibodies from Cell Signaling: pSTAT3 (9145), pRB (8516) and H3K27me3 (9733). For staining of human skin samples, EZH2 antibody (Cell Signaling, 5246) was used. Antigen retrieval was performed in 1 mM EDTA pH 8.0 for pSTAT3, and 10 mM citrate buffer pH 6.0+0.5% Triton X-100 for EZH2, H3K27me3 and pRB. After incubation with peroxidase-coupled secondary antibodies, sections were stained with DAB substrate.

[3] = test system: IMQ-induced psoriasis-like skin inflammation; experiment: Imiquimod (IMQ)-mediated psoriasis mouse model, topical treatment of ears; type: in vivo, C57BL/6 mice
Procedure: Experiments were conducted in accordance with the German law guidelines of animal care. […] At day 7, mice were sacrificed and analysed. For IL-36α-mediated psoriasis induction, ears of male C57BL/6 mice (8-12 weeks old) were treated by intradermal injections using 1 μg murine IL-36α (aa 8-160, R&D) or PBS control for 5 consecutive days. […] Inhibitors were topically applicated 6 h before intradermal injections of IL-36α or PBS were applied. Mice were sacrificed and analysed at day 6.
Sample preparation was performed as described. The following anti-mouse antibodies from BioLegend were used: anti-CD45 FITC (103107), anti-CD11 b PacificBlue (101223), anti-Ly6G PE (127607), anti-F4/80 APC (123115), anti-CD11c Pacific Blue (117322), anti-MHC-II APC (107613), anti-CD172α PE (144011) and anti-Silec-H PE (129605). Anti-PDCA-1 APC (17-2092-80) and anti-αβTCR PE (HM3628) were purchased from Invitrogen, and anti-γδ-TCR APC (17-5711-82) from Sigma. Data was acquired on a LSRII flow cytometer (Becton Dickson).
Ear sections from mice were fixed in 10% formalin (Carl Roth) and subsequently embedded in paraffin. 5-μm sections were prepared and incubated with the following antibodies from Cell Signaling: pSTAT3 (9145), pRB (8516) and H3K27me3 (9733). For staining of human skin samples, EZH2 antibody (Cell Signaling, 5246) was used. Antigen retrieval was performed in 1 mM EDTA pH 8.0 for pSTAT3, and 10 mM citrate buffer pH 6.0+0.5% Triton X-100 for EZH2, H3K27me3 and pRB. After incubation with peroxidase-coupled secondary antibodies, sections were stained with DAB substrate.

[4] = test system: non-Hodgkin's lymphoma / DLBCL cell lines; conditions: cited from earlier work; for effect on DLBCL cells with EZH2 (Y641) mutations: diffused large B cell lymphoma cells
[5] = experimental animals; cited from earlier work
[6] = test system: B cell lymphoma xenografts; conditions: cited from earlier work
[7] = test system: SCLC cell lines; conditions: three SCLC cell lines; cited from earlier work
[8] = test system: prostate cancer cell lines; conditions: in vitro; cited from earlier work
[9] = test system: cutaneous melanomas; conditions: mice; cited from earlier work
[10] = test system: wild-type and mutant EZH2; conditions: cited from earlier work
[11] = flow cytometry of ears at day 7

Compound: CCS(=O)(=O)N1CCC([C@@H](C)n2c(C)c(C(=O)NCc3c(OC)cc(C)[nH]c3=O)c3ccccc32)CC1 [CPI-169]
- cellular H3K27me3 / H3K27 methylation [1]: decreases
- IL-36-mediated expression of IκBζ, phosphorylation of EZH2 at T345 and activation of STAT3 (pSTAT3 Y705) in skin ([2]; immunoblot of ear skin at day 6): suppressed
- keratinocyte hyperproliferation and immune cell infiltration ([2]; intradermal IL-36α 5 days, topical inhibitor, abemaciclib 0.02 mg, CPI-169 0.05 mg, day 6): effectively blocked
- IκBζ target gene expression and key cytokine expression (Il17a, Il23a) ([2]; qPCR of skin samples): effectively blocked
- H3K27me3 expression in the epidermis (EZH2 inhibition) ([3]; ear skin sections of treated mice): loss
- immune cell infiltration (neutrophils, macrophages, T cells) [3, 11]: fully abrogated
- number of infiltrating plasmacytoid (pDC) and myeloid dendritic cells (mDC) [3, 11]: significantly suppressed
- IκBζ expression, phosphorylation of EZH2 at T345 and of STAT3 at Y705 in the skin ([3]; immunoblot of skin tissue at day 7): completely abrogated
- expression of IκBζ target genes (Cxcl2, Cxcl5) and cytokines (Il17a, Il23a) in skin ([3]; qPCR of skin samples at day 7): significantly downregulated
- psoriasis-like skin inflammation (ear thickening, keratinocyte hyperproliferation, immune cell infiltration) ([3]; topical daily for 6 days with IMQ, abemaciclib 0.02 mg, CPI-169 0.05 mg per ear/day, analysed day 7): completely suppressed; also recorded: completely suppressing
- effect on non-Hodgkin's lymphoma (NHL) cell lines ([4]; large panel of NHL cell lines): triggering cell cycle arrest and ultimately resulting in apoptosis

Compound: COc1cc(C)[nH]c(=O)c1CNC(=O)c1c(C)n([C@H](C)C2CCN(CC(F)(F)F)CC2)c2ccccc12 [CPI-1205]
- tolerability [5]: well-tolerated

Compound: CCc1c(N(CC)C2CCOCC2)cc2oc(C3CCN(C(C)C)CC3)cc2c1C(=O)NCc1c(C)cc(C)[nH]c1=O [EBI-2511]
- efficacy in Pfeiffer tumor Xenograft models ([6]; mouse): high in vivo efficacy

Compound: CCC(CC)n1ccc2c(C(=O)NCc3c(C)cc(C)[nH]c3=O)cc(C#N)cc21 [EI1]
- cellular H3K27me3 / H3K27 methylation [1]: blocks
- effect on DLBCL cells with EZH2 (Y641) mutations [4]: decreased proliferation, cell cycle arrest, and apoptosis

Compound: CCN(c1cc(C#CCN2CCOCC2)cc(C(=O)NCc2c(C)cc(C)[nH]c2=O)c1C)[C@H]1CC[C@H](N(C)CCOC)CC1 [EPZ011989]
- tumor growth, xenograft model of human B cell lymphoma ([6]; mouse): significant tumor growth inhibition

Compound: CC[C@H](C)n1cc(C)c2c(C(=O)NCc3c(C)cc(C)[nH]c3=O)cc(-c3ccc(N4CCNCC4)nc3)cc21 [GSK126]
- growth of SCLC cell lines [7]: induces growth inhibition
- effect on DLBCL cells with EZH2 (Y641) mutations [4]: effectively inhibits proliferation
- growth of EZH2 mutant DLBCL xenografts ([6]; mice): effectively inhibits

Compound: CCCc1cc(C)[nH]c(=O)c1CNC(=O)c1cc(-c2ccnc(N3CCN(C)CC3)c2)cc2c1cnn2C(C)C [GSK343]
- H3K27me3 levels ([1]; breast cancer cells in vitro): decrease
- proliferation of prostate cancer cell lines [8]: inhibits proliferation

Compound: Cc1cc(C)c(CNC(=O)c2cc(-c3ccc(N4CCN(C)CC4)nc3)cc3c2c(C)cn3C(C)C)c(=O)[nH]1 [GSK503]
- growth and metastasis of cutaneous melanomas [9]: inhibits growth and metastasis

Compound: Cc1cc(C)c(CN2CCc3c(Cl)cc(-c4c(C)noc4C)c(Cl)c3C2=O)c(=O)[nH]1 [PF-06726304]
- efficacy in diffuse large B-cell lymphoma Karpas-422 tumor model ([6]; mouse, in vivo): good efficacy

Compound: CCCc1cc(C)[nH]c(=O)c1CNC(=O)c1cc(-c2ccc(N3CCN(C(C)C)CC3)nc2)cc2c1cnn2C(C)C [UNC1999]
- effect on DLBCL cells with EZH2 (Y641) mutations [4]: selectively killed
- difference in potency, wild-type vs mutant Y641N EZH2 methyltransferase activity [10]: < 5 fold
